# In PubChem BioAssay (NCI):
#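 Each compound was tested at five concentrations against cells in 96-well plates for 48 hours. TGI: total growth inhibition.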 Where a SMILES comes first, the peptide text is derived from it. The star is where a group is joined. Cbz = O=C(OCc1ccccc1)*
# Assays:
# Experiment in all cases: NCI anticancer screen, dose series, 48 h
# [1] = test system: MCF7 breast
# [2] = test system: 786-0 renal
# [3] = test system: KM12 colon
# [4] = test system: HCC-2998 colon
# [5] = test system: HL-60(TB) leukemia
# [6] = test system: SN12C renal
# [7] = test system: HOP-62 NSCLC
# [8] = test system: MOLT-4 leukemia
# [9] = test system: M14 melanoma
# [10] = test system: HT29 colon
# [11] = test system: K-562 leukemia
# [12] = test system: RXF 393 renal
# [13] = test system: MALME-3M melanoma
# [14] = test system: ACHN renal
# [15] = test system: HCT-15 colon
# [16] = test system: U251 CNS
# [17] = test system: EKVX NSCLC
# [18] = test system: MDA-MB-231 breast
# [19] = test system: RPMI-8226 leukemia
# [20] = test system: BT-549 breast
# [21] = test system: SW-620 colon
# [22] = test system: T-47D breast
# [23] = test system: COLO 205 colon
# [24] = test system: SK-MEL-5 melanoma
# [25] = test system: SK-MEL-2 melanoma
# [26] = test system: HOP-92 NSCLC
# [27] = test system: OVCAR-5 ovarian
# [28] = test system: UACC-257 melanoma
# [29] = test system: A549 NSCLC
# [30] = test system: PC-3 prostate
# [31] = test system: A498 renal
# [32] = test system: HCT-116 colon
# [33] = test system: OVCAR-8 ovarian
# [34] = test system: HS 578T breast
# [35] = test system: SK-MEL-28 melanoma
# [36] = test system: UACC-62 melanoma
# [37] = test system: SNB-19 CNS
# [38] = test system: SR leukemia
# [39] = test system: NCI-H460 lung
# [40] = test system: TK-10 renal
# [41] = test system: NCI-H226 lung
# [42] = test system: MDA-N
# [43] = test system: IGROV1 ovarian
# [44] = test system: SNB-75 CNS
# [45] = test system: NCI-H23 lung
# [46] = test system: UO-31 renal
# [47] = test system: SF-295 CNS
# [48] = test system: DU-145 prostate
# [49] = test system: SK-OV-3 ovarian
# [50] = test system: CAKI-1 renal
# [51] = test system: SF-268 CNS
# [52] = test system: MDA-MB-435
# [53] = test system: OVCAR-4 ovarian
# [54] = test system: SF-539 CNS
# [55] = test system: NCI/ADR-RES ovarian
# [56] = test system: CCRF-CEM leukemia
# [57] = test system: OVCAR-3 ovarian
# [58] = test system: NCI-H522 lung
# [59] = test system: LOX IMVI melanoma
structure (smiles),measurement,setting,value
CCOC(=O)C(CC(=O)OC)NC(=O)C(CC(=O)OC)NC(=O)C(CC(=O)OC)NC(=O)C(CC(=O)OC)NC(=O)OCc1ccccc1 (stereo not drawn) (Cbz-D(OMe)D(OMe)D(OMe)D(OMe)-OEt; configuration not given here),TGI,[1],> 100 µM
same,TGI,[2],> 100 µM
same,TGI,[3],> 100 µM
same,TGI,[4],> 100 µM
same,TGI,[5],> 100 µM
same,TGI,[6],> 100 µM
same,TGI,[7],> 100 µM
same,TGI,[8],> 100 µM
same,TGI,[9],> 100 µM
same,TGI,[10],> 100 µM
same,TGI,[11],> 100 µM
same,TGI,[12],> 100 µM
same,TGI,[13],> 100 µM
same,TGI,[14],> 100 µM
same,TGI,[15],> 100 µM
same,TGI,[16],> 100 µM
same,TGI,[17],> 100 µM
same,TGI,[18],> 100 µM
same,TGI,[19],> 100 µM
same,TGI,[20],> 100 µM
same,TGI,[21],> 100 µM
same,TGI,[22],> 100 µM
same,TGI,[23],> 100 µM
same,TGI,[24],> 100 µM
same,TGI,[25],> 100 µM
same,TGI,[26],> 100 µM
same,TGI,[27],> 100 µM
same,TGI,[28],> 100 µM
same,TGI,[29],> 100 µM
same,TGI,[30],> 100 µM
same,TGI,[31],> 100 µM
same,TGI,[32],> 100 µM
same,TGI,[33],> 100 µM
same,TGI,[34],> 100 µM
same,TGI,[35],> 100 µM
same,TGI,[36],> 100 µM
same,TGI,[37],> 100 µM
same,TGI,[38],> 100 µM
same,TGI,[39],> 100 µM
same,TGI,[40],> 100 µM
same,TGI,[41],> 100 µM
same,TGI,[42],> 100 µM
same,TGI,[43],> 100 µM
same,TGI,[44],> 100 µM
same,TGI,[45],> 100 µM
same,TGI,[46],> 100 µM
CC1CC(C)(O)CC(C(O)CC2CC(=O)NC(=O)C2)C1=O (stereo not drawn),TGI,[1],0.686 µM
same,TGI,[2],0.741 µM
same,TGI,[3],1.41 µM
same,TGI,[47],0.142 µM
same,TGI,[4],1.59 µM
same,TGI,[5],1.1 µM
same,TGI,[48],1.85 µM
same,TGI,[49],2.45 µM
same,TGI,[50],0.0916 µM
same,TGI,[6],0.64 µM
same,TGI,[7],0.449 µM
same,TGI,[8],0.229 µM
same,TGI,[51],> 69.3 µM
same,TGI,[9],0.551 µM
same,TGI,[10],1.61 µM
same,TGI,[11],0.706 µM
same,TGI,[12],1.05 µM
same,TGI,[52],2.1 µM
same,TGI,[13],6.44 µM
same,TGI,[14],1.17 µM
same,TGI,[53],0.87 µM
same,TGI,[15],2.94 µM
same,TGI,[16],7.9 µM
same,TGI,[17],3.45 µM
same,TGI,[54],0.226 µM
same,TGI,[18],0.0651 µM
same,TGI,[19],0.564 µM
same,TGI,[21],1.53 µM
same,TGI,[55],5.87 µM
same,TGI,[56],1.53 µM
same,TGI,[22],3.18 µM
same,TGI,[23],1.01 µM
same,TGI,[57],3.43 µM
same,TGI,[24],0.195 µM
same,TGI,[25],2.68 µM
same,TGI,[26],0.625 µM
same,TGI,[27],9.21 µM
same,TGI,[58],< 0.0476 µM
same,TGI,[28],> 100 µM
same,TGI,[29],7.19 µM
same,TGI,[30],5.63 µM
same,TGI,[31],3.51 µM
same,TGI,[32],0.704 µM
same,TGI,[59],0.785 µM
same,TGI,[33],2.89 µM
same,TGI,[34],0.316 µM
same,TGI,[35],3.55 µM
same,TGI,[36],0.62 µM
same,TGI,[37],2.24 µM
same,TGI,[39],1.76 µM
same,TGI,[40],3.99 µM
same,TGI,[41],0.764 µM
same,TGI,[42],1.16 µM
same,TGI,[43],1.55 µM
same,TGI,[44],1.27 µM
same,TGI,[45],1.56 µM
same,TGI,[46],1.16 µM
COC(=O)CC1(O)C(/C=C/c2ccccc2)C(C(=O)OC)C(=O)C(C(=O)OC)C1C(=O)OC (stereo not drawn),TGI,[1],> 100 µM
same,TGI,[2],> 100 µM
same,TGI,[3],> 100 µM
same,TGI,[47],> 100 µM
same,TGI,[4],> 100 µM
same,TGI,[5],> 100 µM
same,TGI,[48],> 100 µM
same,TGI,[49],> 100 µM
same,TGI,[50],> 100 µM
same,TGI,[6],> 100 µM
same,TGI,[7],> 100 µM
same,TGI,[8],> 100 µM
same,TGI,[51],> 100 µM
same,TGI,[9],> 100 µM
same,TGI,[10],> 100 µM
same,TGI,[11],> 100 µM
same,TGI,[12],> 100 µM
same,TGI,[52],> 100 µM
same,TGI,[13],> 100 µM
same,TGI,[14],> 100 µM
same,TGI,[53],> 100 µM
same,TGI,[15],> 100 µM
same,TGI,[16],> 100 µM
same,TGI,[17],> 100 µM
same,TGI,[54],> 100 µM
same,TGI,[18],> 100 µM
same,TGI,[19],> 100 µM
same,TGI,[21],> 100 µM
same,TGI,[55],> 100 µM
same,TGI,[56],> 100 µM
same,TGI,[23],> 100 µM
same,TGI,[57],> 100 µM
same,TGI,[24],> 100 µM
same,TGI,[25],> 100 µM
same,TGI,[26],> 100 µM
same,TGI,[27],> 100 µM
same,TGI,[58],> 100 µM
same,TGI,[28],> 100 µM
same,TGI,[29],> 100 µM
same,TGI,[30],> 100 µM
same,TGI,[31],> 100 µM
same,TGI,[32],> 100 µM
same,TGI,[59],> 100 µM
same,TGI,[33],> 100 µM
same,TGI,[34],> 100 µM
same,TGI,[35],> 100 µM
same,TGI,[36],> 100 µM
same,TGI,[37],> 100 µM
same,TGI,[38],> 100 µM
same,TGI,[39],> 100 µM
same,TGI,[40],> 100 µM
same,TGI,[41],> 100 µM
same,TGI,[42],> 100 µM
same,TGI,[43],> 100 µM
same,TGI,[45],> 100 µM
same,TGI,[46],> 100 µM
CC1=NN(C(=O)c2ccccc2O)C(c2ccccc2Cl)C1C(=O)Nc1ccccc1 (stereo not drawn),TGI,[1],> 100 µM
same,TGI,[2],> 44.9 µM
same,TGI,[3],> 100 µM
same,TGI,[47],> 100 µM
same,TGI,[4],> 100 µM
same,TGI,[5],7.24 µM
same,TGI,[48],> 43.5 µM
same,TGI,[49],> 100 µM
same,TGI,[50],> 100 µM
same,TGI,[6],> 44.8 µM
same,TGI,[7],> 100 µM
same,TGI,[8],> 85.7 µM
same,TGI,[51],30.8 µM
same,TGI,[9],33.1 µM
same,TGI,[10],> 100 µM
same,TGI,[11],> 100 µM
same,TGI,[12],> 100 µM
same,TGI,[52],> 100 µM
same,TGI,[13],51.9 µM
same,TGI,[14],> 100 µM
same,TGI,[53],> 100 µM
same,TGI,[15],> 100 µM
same,TGI,[16],> 100 µM
same,TGI,[17],> 100 µM
same,TGI,[54],5.68 µM
same,TGI,[18],> 100 µM
same,TGI,[19],> 90.8 µM
same,TGI,[21],> 100 µM
same,TGI,[55],> 49.5 µM
same,TGI,[56],0.245 µM
same,TGI,[22],> 100 µM
same,TGI,[23],> 100 µM
same,TGI,[57],> 51.3 µM
same,TGI,[24],30.5 µM
same,TGI,[25],> 100 µM
same,TGI,[26],> 100 µM
same,TGI,[27],> 43.7 µM
same,TGI,[58],0.692 µM
same,TGI,[28],> 100 µM
same,TGI,[29],> 100 µM
same,TGI,[30],> 100 µM
same,TGI,[59],> 36.5 µM
same,TGI,[33],> 100 µM
same,TGI,[34],> 100 µM
same,TGI,[35],> 100 µM
same,TGI,[36],> 51.2 µM
same,TGI,[37],> 100 µM
same,TGI,[38],> 100 µM
same,TGI,[39],> 53.1 µM
same,TGI,[40],> 100 µM
same,TGI,[41],8.02 µM
same,TGI,[42],> 100 µM
same,TGI,[43],> 32.4 µM
same,TGI,[45],> 100 µM
